# The NIST ThermoML archive (doi:10.1021/acs.jced.6b00513)
# ± gives the expanded uncertainty stated by the source.
# Conditions: 298.2 K; 101.3 kPa; Liquid; Buoyancy - hydrostatic balance
row,Structure (SMILES),mass density [kg/m3]
1,CO [methanol],791 ± 6
2,CC(=O)CC(C)C [4-methylpentan-2-one],799.8 ± 6
3,CCCCOC(C)=O [butyl ethanoate],882.2 ± 6
4,O [water],997.2 ± 6
5,Cc1cccc(O)c1 [3-methylphenol],1034.5 ± 6
6,"Cc1cc(C)cc(C)c1 [1,3,5-trimethylbenzene]",864 ± 6

# Same assay, conditions: 298.2 K; 101.3 kPa; Metastable liquid; Buoyancy - hydrostatic balance
row,Structure (SMILES),mass density [kg/m3]
1,Cc1ccc(O)cc1 [4-methylphenol],1034.4 ± 6
